Data published in ChEMBL document CHEMBL5260834, “Benzomorphan skeleton, a versatile scaffold for different targets: A comprehensive review” (Eur J Med Chem, 2018).

Key:
[1] = biological target: T1, Kappa-type opioid receptor (Homo sapiens, UniProt P41145); test: Displacement of [3H]-diprenorphine from KOR receptor (unknown origin) assessed as inhibition constant in presence of D-Ala-N-MePhe-Gly-ol-enkephalin and D-Ala-DLeu-enkephalin
[2] = biological target: T2, Sigma non-opioid intracellular receptor 1 (Homo sapiens, UniProt Q99720); test: Displacement of [3H]-(+)-pentazocine from sigma1 receptor (unknown origin) assessed as inhibition constant
[3] = biological target: T3, Sigma intracellular receptor 2 (Homo sapiens, UniProt Q5BJF2); test: Displacement of [3H]DTG from sigma 2 receptor (unknown origin) assessed as inhibition constant in presence of (+)-SKF10047 by radioligand binding assay
[4] = biological target: T4, Sigma non-opioid intracellular receptor 1 (Cavia porcellus, UniProt Q60492); test: Displacement of [3H]-(+)-pentazocine from sigma1 receptor in guinea pig brain membrane assessed as inhibition constant measured for 150 mins in presence of haloperidol; format: cell membranes
[5] = biological target: T5, Sigma intracellular receptor 2 (Rattus norvegicus, UniProt Q5U3Y7); test: Displacement of [3H]DTG from sigma 2 receptor in rat liver membranes assessed as inhibition constant presence of haloperidol by scintillation counting analysis; format: cell membranes, Membrane
T5 sequence (Q5U3Y7 whole entry): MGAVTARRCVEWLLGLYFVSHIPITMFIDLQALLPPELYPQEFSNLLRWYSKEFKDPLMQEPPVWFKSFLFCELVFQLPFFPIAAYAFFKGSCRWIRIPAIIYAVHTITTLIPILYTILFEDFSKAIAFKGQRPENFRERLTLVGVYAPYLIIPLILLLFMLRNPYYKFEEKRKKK

[6] = Ratio of Ki for displacement of [3H]DTG from sigma 2 receptor in rat liver membranes assessed as inhibition constant presence of haloperidol by scintillation counting analysis to Ki for displacement of [3H]-(+)-pentazocine from sigma 1 receptor in guinea pig brain membrane assessed as inhibition constant in presence of haloperidol; format: cell membranes
[7] = biological target: T3, Sigma intracellular receptor 2; test: Displacement of [3H]DTG from sigma 2 receptor (unknown origin) assessed as inhibition constant incubated for 120 mins in presence of (+)-SKF10047 by radioligand binding assay
[8] = biological target: Mu-type opioid receptor (Rattus norvegicus, UniProt P33535); test: Displacement of [ 3H]-naloxone from rat brain membrane mu opioid receptor assessed as inhibition constant by radioligand binding assay; format: cell membranes
[9] = biological target: T2, Sigma non-opioid intracellular receptor 1; test: Agonist activity at sigma1 receptor (unknown origin); conditions: filed as agonist
[10] = biological target: T2, Sigma non-opioid intracellular receptor 1; test: Inhibition of sigma 1 receptor (unknown origin)
[11] = biological target: T4, Sigma non-opioid intracellular receptor 1; test: Displacement of [3H]-(+)-pentazocine from sigma1 receptor in guinea pig brain membrane assessed as inhibition constant measured after 120 mins by scintillation counting method; format: cell membranes
[12] = biological target: T6, Mu-type opioid receptor (Homo sapiens, UniProt P35372); test: Displacement of [3H]-DAMGO from human MOR receptor assessed as inhibition constant by cheng-prusoff equation assay
[13] = Ratio of Ki for displacement of[3H]-DAMGO from human MOR receptor to Ki for displacement of [3H]-(+)-pentazocine from sigma1 receptor in guinea pig brain membrane; format: cell membranes
[14] = biological target: T3, Sigma intracellular receptor 2; test: Displacement of [3H]DTG from sigma 2 receptor (unknown origin) assessed as inhibition constant
[15] = Ratio of Ki for displacement of [3H]DTG from sigma 2 receptor (unknown origin) to Ki for displacement of [3H]-(+)-pentazocine from sigma1 receptor in guinea pig brain membrane; format: cell membranes
[16] = biological target: T4, Sigma non-opioid intracellular receptor 1; test: Displacement of [3H]-(+)-pentazocine from sigma1 receptor in guinea pig brain membrane assessed as inhibition constant; format: cell membranes
[17] = biological target: T5, Sigma intracellular receptor 2; test: Displacement of [3H]DTG from sigma 2 receptor in rat liver membranes assessed as inhibition constant presence of dextrallorphan; format: cell membranes, Membrane
[18] = biological target: T6, Mu-type opioid receptor; test: Displacement of [3H]-Diprenorphine from MOR receptor (unknown origin) assessed as inhibition constant
[19] = biological target: Delta-type opioid receptor (Homo sapiens, UniProt P41143); test: Displacement of [3H]-Diprenorphine from DOR receptor (unknown origin) assessed as inhibition constant
[20] = biological target: T1, Kappa-type opioid receptor; test: Displacement of [3H]-U69593 from KOR receptor (unknown origin) assessed as inhibition constant
[21] = biological target: T4, Sigma non-opioid intracellular receptor 1; test: Displacement of [3H]-(+)-pentazocine from sigma1 receptor in guinea pig brain membrane assessed as inhibition constant measured for 150 mins; format: cell membranes
[22] = biological target: T3, Sigma intracellular receptor 2; test: Displacement of [3H]DTG from sigma 2 receptor (unknown origin) assessed as inhibition constant in presence of haloperidol measured for 120 mins by scintillation counting analysis
[23] = Ratio of Ki for displacement of [3H]DTG from sigma 2 receptor (unknown origin) assessed as inhibition constant in presence of haloperidol to Ki for displacement of [3H]-(+)-pentazocine from sigma1 receptor in guinea pig brain membrane assessed as inhibition constant; format: cell membranes
[24] = Ratio of Ki for displacement of [3H]-(+)-pentazocine from sigma1 receptor in guinea pig brain membrane assessed as inhibition constant to Ki for displacement of [3H]-(+)-pentazocine from sigma1 receptor in guinea pig brain membrane assessed as inhibition constant; format: cell membranes; design: reference not given here

Mu-type opioid receptor (Rattus norvegicus, UniProt P33535), sequence (P33535 whole entry): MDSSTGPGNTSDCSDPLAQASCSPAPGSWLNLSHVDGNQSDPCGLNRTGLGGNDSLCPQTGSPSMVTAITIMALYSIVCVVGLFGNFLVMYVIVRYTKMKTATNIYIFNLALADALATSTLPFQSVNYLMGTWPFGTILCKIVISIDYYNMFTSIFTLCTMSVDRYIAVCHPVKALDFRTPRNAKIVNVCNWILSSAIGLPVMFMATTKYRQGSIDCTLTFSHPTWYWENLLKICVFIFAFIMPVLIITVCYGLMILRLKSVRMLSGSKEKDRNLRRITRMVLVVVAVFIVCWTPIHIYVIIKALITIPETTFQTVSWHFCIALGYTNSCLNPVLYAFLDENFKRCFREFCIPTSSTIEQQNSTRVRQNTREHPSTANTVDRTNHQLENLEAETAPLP
T2 sequence (Q99720 whole entry): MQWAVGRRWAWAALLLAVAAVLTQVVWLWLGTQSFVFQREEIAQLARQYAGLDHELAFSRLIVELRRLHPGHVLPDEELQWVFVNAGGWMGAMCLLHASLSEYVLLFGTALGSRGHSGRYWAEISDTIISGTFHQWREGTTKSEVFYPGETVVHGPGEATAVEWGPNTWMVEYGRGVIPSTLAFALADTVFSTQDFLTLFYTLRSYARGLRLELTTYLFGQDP
T1 sequence (P41145 whole entry): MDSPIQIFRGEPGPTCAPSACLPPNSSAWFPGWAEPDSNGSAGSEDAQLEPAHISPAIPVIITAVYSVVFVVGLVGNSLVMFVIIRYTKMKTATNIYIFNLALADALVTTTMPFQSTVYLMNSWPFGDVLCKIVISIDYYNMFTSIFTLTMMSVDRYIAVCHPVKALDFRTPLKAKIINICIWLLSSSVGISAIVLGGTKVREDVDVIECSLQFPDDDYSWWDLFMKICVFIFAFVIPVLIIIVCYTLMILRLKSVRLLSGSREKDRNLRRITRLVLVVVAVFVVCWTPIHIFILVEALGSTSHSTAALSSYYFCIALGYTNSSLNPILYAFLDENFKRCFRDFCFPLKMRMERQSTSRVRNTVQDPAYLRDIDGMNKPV
T6 sequence (P35372 whole entry): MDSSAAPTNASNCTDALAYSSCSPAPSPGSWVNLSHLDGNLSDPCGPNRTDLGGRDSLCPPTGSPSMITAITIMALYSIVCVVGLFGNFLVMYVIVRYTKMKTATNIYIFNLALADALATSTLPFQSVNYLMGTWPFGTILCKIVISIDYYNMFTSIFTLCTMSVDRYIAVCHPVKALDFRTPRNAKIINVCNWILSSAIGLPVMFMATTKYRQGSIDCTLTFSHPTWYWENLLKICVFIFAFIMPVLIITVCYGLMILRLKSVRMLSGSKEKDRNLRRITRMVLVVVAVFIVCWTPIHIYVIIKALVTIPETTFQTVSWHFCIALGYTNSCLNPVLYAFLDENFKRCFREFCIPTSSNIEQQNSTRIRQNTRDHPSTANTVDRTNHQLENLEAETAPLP
T3 sequence (Q5BJF2 whole entry): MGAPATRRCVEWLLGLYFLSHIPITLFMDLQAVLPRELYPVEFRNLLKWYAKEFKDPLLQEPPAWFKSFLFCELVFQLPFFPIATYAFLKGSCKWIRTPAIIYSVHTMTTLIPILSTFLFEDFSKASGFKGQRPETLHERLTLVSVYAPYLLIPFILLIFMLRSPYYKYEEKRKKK
Delta-type opioid receptor, sequence (P41143 whole entry): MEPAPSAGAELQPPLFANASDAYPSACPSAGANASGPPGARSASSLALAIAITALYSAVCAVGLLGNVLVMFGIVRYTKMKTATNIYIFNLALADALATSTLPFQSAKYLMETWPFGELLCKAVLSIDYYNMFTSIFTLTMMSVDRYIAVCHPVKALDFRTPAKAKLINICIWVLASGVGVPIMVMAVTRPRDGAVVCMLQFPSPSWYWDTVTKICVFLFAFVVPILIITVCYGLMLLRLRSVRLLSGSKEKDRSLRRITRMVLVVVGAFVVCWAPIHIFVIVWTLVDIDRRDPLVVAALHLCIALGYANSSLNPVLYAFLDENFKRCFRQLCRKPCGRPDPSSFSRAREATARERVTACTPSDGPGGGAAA
T4 sequence (Q60492 whole entry): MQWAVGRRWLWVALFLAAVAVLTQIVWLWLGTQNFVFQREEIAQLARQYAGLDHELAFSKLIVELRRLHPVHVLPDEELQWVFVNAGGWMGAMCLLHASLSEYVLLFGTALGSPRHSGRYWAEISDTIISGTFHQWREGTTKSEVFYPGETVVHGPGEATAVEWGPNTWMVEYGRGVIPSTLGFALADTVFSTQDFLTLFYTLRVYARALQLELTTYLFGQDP

In the case of `C[C@@H]1[C@@H]2Cc3ccccc3[C@]1(C)CCN2CCNc1ccccc1`, the Ki [1] is reported as 6500 nM, the Ki [2] is reported as 21 nM and the Ki [3] is reported as 144 nM.

Work on `C[C@@H]1[C@@H]2CCN(Cc3ccccc3)[C@@H]1Cc1ccccc12` yielded a Ki [4] of 0.96 nM, a Ki [5] of 131 nM and a Ratio Ki [6] of 136.

In the case of `C[C@@H]1[C@@H]2Cc3ccc(O)cc3[C@]1(C)CCN2CCN1CCOCC1`, the Ki [7] is reported as 300 nM, the Ki [4] is reported as 13.4 nM and the Ki [8] is reported as 8170 nM. For the same compound, the ED50 [9] was 0.82 mg/kg.

In the case of `CC(C)=CCN1CC[C@@]2(C)c3cc(O)ccc3C[C@H]1[C@H]2C`, the Ki [8] is reported as 2370 nM.

`C[C@@H]1[C@@H]2Cc3ccc(O)cc3[C@]1(C)CCN2CCN1CCCC1` gave a Ki [7] of 260 nM, a Ki [4] of 7.4 nM and a Ki [8] of 3800 nM.

For `C[C@@H]1[C@@H]2Cc3ccccc3[C@]1(C)CCN2CCN1CCCC1`, the Ki [1] was 6400 nM, the Ki [2] was 34 nM and the Ki [3] was 42 nM.

In the case of `C[C@@H]1[C@@H]2Cc3ccccc3[C@]1(C)CCN2CCN1CCCCC1`, the Ki [1] is reported as > 10000 nM, the Ki [2] is reported as 20 nM and the Ki [3] is reported as 130 nM.

With `C=CCCCN1CC[C@]2(C)c3cc(O)ccc3C[C@@H]1[C@@H]2C` the Ki [10] was 180 nM.

`CC[C@@H]1[C@@H]2CCN(Cc3ccccc3)[C@@H]1Cc1ccccc12` showed a Ki [4] of 3.36 nM, a Ki [5] of 115 nM and a Ratio Ki [6] of 34.

Work on `C=CCCN1CC[C@]2(C)c3cc(O)ccc3C[C@@H]1[C@@H]2C` yielded a Ki [10] of 620 nM.

`C[C@@H]1[C@@H]2Cc3ccc(O)cc3[C@]1(C)CCN2Cc1ccccc1` gave a Ki [11] of 0.67 nM, a Ki [12] of 1610 nM and a Ratio Ki [13] of 2400. The Ki [14] was 1710 nM and the Ratio Ki [15] was 2600.

`C[C@@H]1[C@@H]2Cc3ccc(O)cc3[C@]1(C)CCN2CCN1CCCCC1` gave a Ki [7] of 114 nM, a Ki [4] of 9.6 nM and a Ki [8] of 12000 nM. It also gave an ED50 [9] of 0.88 mg/kg.

`C[C@@H]1[C@@H]2Cc3ccc(O)cc3[C@]1(C)CCN2CCN1CCCCCC1` showed a Ki [7] of 151 nM, a Ki [4] of 20.1 nM and a Ki [8] of 9130 nM.

`CC(C)=CCN1CC[C@@]2(C)c3c(ccc(O)c3Br)C[C@H]1[C@H]2C` gave a Ki [16] of 2.49 nM and a Ki [17] of 283 nM.

With `C[C@@H]1[C@@H]2Cc3ccc(O)cc3[C@]1(C)CCN2Cc1ccc(F)cc1` the Ki [11] was 1.45 nM.

With `COC(=O)[C@]1(c2ccc(Cl)cc2)C[C@@H]1CN1CC[C@]2(C)c3cc(O)ccc3C[C@@H]1[C@@H]2C` the Ki [2] was 1050 nM, the Ki [18] was > 25000 nM and the Ki [19] was > 25000 nM. The Ki [20] was 0.41 nM.

`CC(C)=CCN1CC[C@@]2(C)c3cc(F)ccc3C[C@H]1[C@H]2C` gave a Ki [21] of 1.48 nM, a Ki [22] of 154 nM and a Ratio Ki [23] of 104.

In the case of `COC(=O)[C@]1(c2ccccc2)C[C@@H]1CN1CC[C@]2(C)c3cc(O)ccc3C[C@@H]1[C@@H]2C`, the Ki [18] is reported as > 25000 nM, the Ki [19] is reported as > 25000 nM and the Ki [20] is reported as 240 nM.

In the case of `COC(=O)[C@]1(c2ccccc2)C[C@@H]1CN1CC[C@@]2(C)c3cc(O)ccc3C[C@H]1[C@H]2C`, the Ki [2] is reported as 66.7 nM, the Ki [18] is reported as > 25000 nM and the Ki [19] is reported as > 1000 nM. The Ki [20] was > 1000 nM.

In the case of `C[C@@H]1[C@@H]2Cc3ccc(O)c(Cl)c3[C@]1(C)CCN2Cc1ccccc1`, the Ki [16] is reported as 1.72 nM, the Ki [17] is reported as 764 nM and the Ratio Ki [24] is reported as 440.
